In ChEMBL document CHEMBL4346693, “Exploring the PROTAC degron candidates: OBHSA with different side chains as novel selective estrogen receptor degraders (SERDs)” (Eur J Med Chem, 2019):
Active and inactive are the calls of the source. No cut-off for these calls is given here.

What was measured:
[1] = target: T1, Estrogen receptor (Homo sapiens) (UniProt P03372); assay: Induction of ERalpha protein degradation in human MCF7 cells at 5 uM incubated for 20 hrs by Western blot analysis relative to control; type: cell-based
T1 sequence (whole entry): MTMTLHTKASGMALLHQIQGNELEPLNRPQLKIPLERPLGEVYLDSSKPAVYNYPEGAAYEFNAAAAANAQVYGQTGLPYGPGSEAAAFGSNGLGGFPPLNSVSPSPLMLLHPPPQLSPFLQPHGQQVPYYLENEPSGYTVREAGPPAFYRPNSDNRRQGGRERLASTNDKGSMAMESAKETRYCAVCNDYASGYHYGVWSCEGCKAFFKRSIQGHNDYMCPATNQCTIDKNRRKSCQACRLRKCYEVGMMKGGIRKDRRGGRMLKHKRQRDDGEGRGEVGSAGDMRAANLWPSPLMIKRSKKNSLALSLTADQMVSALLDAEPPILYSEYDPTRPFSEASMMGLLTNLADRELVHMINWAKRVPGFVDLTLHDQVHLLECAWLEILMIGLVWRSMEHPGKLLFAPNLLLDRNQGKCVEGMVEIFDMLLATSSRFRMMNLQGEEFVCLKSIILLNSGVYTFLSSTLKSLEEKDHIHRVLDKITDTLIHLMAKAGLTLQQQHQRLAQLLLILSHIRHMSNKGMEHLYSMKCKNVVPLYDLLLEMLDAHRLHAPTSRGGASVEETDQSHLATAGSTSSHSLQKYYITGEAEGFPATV

[2] = target: T1, Estrogen receptor (Homo sapiens); assay: Binding affinity to purified human ERalpha LBD incubated for 2 hrs by fluorescence tracer based competitive fluorometric binding assay relative to estradiol
[3] = target: Estrogen receptor beta (Homo sapiens) (UniProt Q92731); assay: Binding affinity to ERbeta (unknown origin) incubated for 2 hrs by fluorescence tracer based competitive fluorometric binding assay relative to estradiol
MCF7 = assay: cells; settings: Homo sapiens, MCF7, 72 h
Description: Antiproliferative activity against human MCF7 cells incubated for 72 hrs by MTT assay

[4] = target: T1, Estrogen receptor (Homo sapiens); assay: Induction of ERalpha protein degradation in human MCF7 cells assessed as ERalpha protein level at 10 uM incubated for 20 hrs by Western blot analysis relative to control; type: cell-based
[5] = Half life in Sprague-Dawley rat at 10 mg/kg, po by LC-MS/MS analysis; type: ADME, organism-based; settings: in vivo
[6] = AUC in Sprague-Dawley rat at 10 mg/kg, po by LC-MS/MS analysis; type: ADME, organism-based; settings: in vivo
[7] = AUC in Sprague-Dawley rat at 3 mg/kg, iv by LC-MS/MS analysis; type: ADME, organism-based; settings: in vivo
[8] = Cmax in Sprague-Dawley rat at 10 mg/kg, po by LC-MS/MS analysis; type: ADME, organism-based; set-up: dose 10 mg/kg, route oral; settings: in vivo
[9] = target: T1, Estrogen receptor (Homo sapiens); assay: Induction of ERalpha protein degradation in human MCF7 cells at 0.5 uM incubated for 20 hrs by Western blot analysis; type: cell-based
[10] = Cmax in Sprague-Dawley rat at 3 mg/kg, iv by LC-MS/MS analysis; type: ADME, organism-based; set-up: dose 3 mg/kg, route intravenous; settings: in vivo
[11] = target: T1, Estrogen receptor (Homo sapiens); assay: Induction of ERalpha protein degradation in human MCF7 cells at 1 uM incubated for 20 hrs by Western blot analysis relative to control; type: cell-based
[12] = Clearance in Sprague-Dawley rat at 3 mg/kg, iv by LC-MS/MS analysis; type: ADME, organism-based; settings: in vivo
[13] = Volume of distribution at steady state in Sprague-Dawley rat at 3 mg/kg, iv by LC-MS/MS analysis; type: ADME, organism-based; settings: in vivo, read-out: Vdss
[14] = Oral bioavailability in Sprague-Dawley rat at 10 mg/kg by LC-MS/MS analysis; type: ADME, organism-based; settings: in vivo
[15] = Half life in Sprague-Dawley rat at 3 mg/kg, iv by LC-MS/MS analysis; type: ADME, organism-based; settings: in vivo

Chain of Estrogen receptor beta (Homo sapiens) (Q92731 whole entry): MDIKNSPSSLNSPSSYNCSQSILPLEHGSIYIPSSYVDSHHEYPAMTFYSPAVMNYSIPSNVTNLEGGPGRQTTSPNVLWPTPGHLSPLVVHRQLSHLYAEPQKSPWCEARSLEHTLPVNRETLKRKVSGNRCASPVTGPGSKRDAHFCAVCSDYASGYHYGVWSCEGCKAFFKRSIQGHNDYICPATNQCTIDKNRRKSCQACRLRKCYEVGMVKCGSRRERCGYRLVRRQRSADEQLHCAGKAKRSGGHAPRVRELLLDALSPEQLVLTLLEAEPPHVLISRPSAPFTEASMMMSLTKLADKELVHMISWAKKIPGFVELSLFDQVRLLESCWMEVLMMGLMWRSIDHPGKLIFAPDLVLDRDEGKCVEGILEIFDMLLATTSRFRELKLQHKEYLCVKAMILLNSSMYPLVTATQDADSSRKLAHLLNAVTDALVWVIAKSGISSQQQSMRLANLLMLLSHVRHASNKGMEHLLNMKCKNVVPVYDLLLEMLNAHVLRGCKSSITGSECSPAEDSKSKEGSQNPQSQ

COc1ccc(N(CC(F)(F)F)S(=O)(=O)[C@H]2C[C@H]3O[C@@H]2C(c2ccc(O)cc2)=C3c2ccc(O)cc2)cc1
Activity [1]: 100%

COc1ccc(N(CC(F)(F)F)S(=O)(=O)[C@H]2C[C@H]3O[C@@H]2C(c2ccc(OCCCCCCC(=O)O)cc2)=C3c2ccc(O)cc2)cc1 (relative stereo)
RBA [2]: 1.82%
RBA [3]: 0.13%
IC50 (MCF7): 15.9 µM
Activity [4]: 32%

CCN(c1ccc(OCCN2CCCCC2)cc1)S(=O)(=O)[C@H]1C[C@H]2O[C@@H]1C(c1ccc(O)cc1)=C2c1ccc(O)cc1 (relative stereo)
RBA [2]: 0.58%
RBA [3]: 0.25%
IC50 (MCF7): 5.4 µM
Activity [4]: 89%

COc1ccc(N(CC(F)(F)F)S(=O)(=O)[C@H]2C[C@H]3O[C@@H]2C(c2ccc(OCCCCCCCC(=O)O)cc2)=C3c2ccc(O)cc2)cc1 (relative stereo)
RBA [2]: 0.07%
RBA [3]: < 0.01%
IC50 (MCF7): 40.3 µM
Activity [4]: 42%

CN(c1ccccc1)S(=O)(=O)[C@H]1C[C@H]2O[C@@H]1C(c1ccc(OCCN3CCCCC3)cc1)=C2c1ccc(O)cc1 (relative stereo)
RBA [2]: 0.95%
RBA [3]: 0.79%
IC50 (MCF7): 15.2 µM
Activity [4]: 98%

CCN(c1ccccc1)S(=O)(=O)[C@H]1C[C@H]2O[C@@H]1C(c1ccc(OCCCCCCCC(=O)O)cc1)=C2c1ccc(O)cc1 (relative stereo)
RBA [2]: 1.2%
RBA [3]: 0.4%
IC50 (MCF7): 27.4 µM
Activity [4]: 79%

CCN(c1ccccc1)S(=O)(=O)[C@H]1C[C@H]2O[C@@H]1C(c1ccc(OCCCCCCCCCCC(=O)O)cc1)=C2c1ccc(O)cc1 (relative stereo)
RBA [2]: 0.93%
RBA [3]: 0.13%
IC50 (MCF7): 10.3 µM
Activity [4]: 51%

CCN(c1ccccc1)S(=O)(=O)[C@H]1C[C@H]2O[C@@H]1C(c1ccc(OCCN3CCCCC3)cc1)=C2c1ccc(O)cc1 (relative stereo)
RBA [2]: 2.51%
RBA [3]: 0.81%
IC50 (MCF7): 12.9 µM
Activity [4]: 95%

O=S(=O)([C@H]1C[C@H]2O[C@@H]1C(c1ccc(OCC(O)CO)cc1)=C2c1ccc(O)cc1)N(CC(F)(F)F)c1ccc(Cl)cc1 (relative stereo)
RBA [2]: 1.62%
RBA [3]: < 0.01%
IC50 (MCF7): 16.8 µM
Activity [4]: 38%

COc1ccc(N(CC(F)(F)F)S(=O)(=O)[C@H]2C[C@H]3O[C@@H]2C(c2ccc(OCCCCCCCCCCC(=O)O)cc2)=C3c2ccc(O)cc2)cc1 (relative stereo)
RBA [2]: 0.06%
RBA [3]: 0.7%
IC50 (MCF7): 14.3 µM
Activity [4]: 83%

CCN(c1ccccc1)S(=O)(=O)[C@H]1C[C@H]2O[C@@H]1C(c1ccc(OCC(O)CO)cc1)=C2c1ccc(O)cc1 (relative stereo)
RBA [2]: 0.26%
RBA [3]: 0.28%
IC50 (MCF7): 33.6 µM
Activity [4]: 117%

CCN(c1ccc(OCC(O)CO)cc1)S(=O)(=O)[C@H]1C[C@H]2O[C@@H]1C(c1ccc(O)cc1)=C2c1ccc(O)cc1 (relative stereo)
RBA [2]: 0.46%
RBA [3]: 0.53%
IC50 (MCF7): 32.3 µM
Activity [4]: 63%

CCN(c1ccc(OCCCCCCCCCCC(=O)O)cc1)S(=O)(=O)[C@H]1C[C@H]2O[C@@H]1C(c1ccc(O)cc1)=C2c1ccc(O)cc1 (relative stereo)
RBA [2]: 0.57%
RBA [3]: < 0.01%
IC50 (MCF7): 18.4 µM
Activity [4]: 29%

CCN(c1ccc(OCCCCCCC(=O)O)cc1)S(=O)(=O)[C@H]1C[C@H]2O[C@@H]1C(c1ccc(O)cc1)=C2c1ccc(O)cc1 (relative stereo)
RBA [2]: 1.22%
RBA [3]: 0.41%
IC50 (MCF7): > 50 µM
Activity [4]: 92%

COc1ccc(N(CC(F)(F)F)S(=O)(=O)[C@H]2C[C@H]3O[C@@H]2C(c2ccc(OCCN4CCCC4)cc2)=C3c2ccc(O)cc2)cc1 (relative stereo)
half-life [5]: 3.7 h
AUC [6]: 330 ng·h/mL
RBA [2]: 2.12%
AUC [7]: 1080 ng·h/mL
Cmax [8]: 50 ng/mL
Activity [9]: Active
RBA [3]: 1.81%
IC50 (MCF7): 6.1 µM
Cmax [10]: 1000 ng/mL
Activity [11]: 100%
clearance [12]: 46 mL/min/kg
Vd [13]: 9.55 L/kg
Activity [4]: 1%
bioavailability [14]: 9.2%
half-life [15]: 6.2 h

CCN(c1ccc(OCCCCCCCC(=O)O)cc1)S(=O)(=O)[C@H]1C[C@H]2O[C@@H]1C(c1ccc(O)cc1)=C2c1ccc(O)cc1 (relative stereo)
RBA [2]: 3.21%
RBA [3]: 0.42%
IC50 (MCF7): 24.9 µM
Activity [4]: 78%

CC/C(=C(\c1ccc(O)cc1)c1ccc(OCCN(C)C)cc1)c1ccccc1 [AFIMOXIFENE]
IC50 (MCF7): 10.1 µM
